Experimental data as given in patent publication US7105521B2, “Eugenosedin-A based pharmacoligical agents” (Syn-Tech Chem & Pharm Co., Ltd., priority 2003, dated 2006).

Columns and labels:
5-HT2A receptor = 5-HT2A receptor (Rattus norvegicus, UniProt P14842); assay: Receptor binding, [3H]ketanserin, rat cortex; design: from tissue; host or cells: Wistar rat cortex membranes; species or system Wistar rat; details: [3H]ketanserin, rat cortex
Protocol: (§1) Drugs and chemicals. […] Eugenosedin-A synthesized in this laboratory was solvated in 50% absolute alcohol, 10% propylene glycol and further diluted with distilled water. All of the [^3H] ligand was purchased from New England Nuclear Corp. (Boston, Mass., U.S.A.).
(§2) Receptor binding studies. […] The homogenate was pressure filtered through muslin. Filtrate was centrifuged at 1000 g for 10 min. Supernatant was centrifuged at 10,000 g for 12 min at 4° C. The second supernatant was centrifuged at 30,000 g for 15 min at 4° C. The final pellet was re-suspended in assay buffer (75 mM Tris HCl, 25 mM MgCl2, pH 7.4). Protein content was determined by Bradford's method. Radioligand agents and membranes (200–300 μg) were incubated for 60 min at 25° C. with or without the addition of nonspecific binding agents, in a 75 mM Tris HCl buffer with 25 mM MgCl2, to make a final volume of 500 μl. In competitive-binding experiments, the competing agent was added directly to the incubation mixture. Incubation was terminated by addition of 1 ml of ice-cold assay buffer followed by immediate filtration through Whatman GF/C glass fiber filters supported on a 12-port filter manifold (Millipore). The filters were immediately washed 3 times with 5 ml of ice-cold assay buffer and dried in an oven at 60° C. for 2 hours before adding 5 ml of Triton-toluene-based scintillation fluid. Membrane-bound radioligand trapped in the filters was counted in a Beckman LS6500 scintillation system (Fullerton, Calif., U.S.A) with an efficiency of 45%. In each experiment, nonspecifically bound radioligand agents were determined by incubating membrane protein. Specific binding for each sample was obtained by deducting this value from the total binding of radioligand agents.

α1 receptors = assay: Receptor binding, [3H]prazosin, rat cortex; design: species or system Wistar rat
Protocol: as §1, §2

α2 receptors = assay: Receptor binding, [3H]yohimbine, rat cortex; design: species or system Wistar rat
Protocol: as §1, §2

[1] = Micro-injection in NTS: BP and HR; assay type: in vivo, rats; details: for pressor response and HR: NTS micro-injection, 0.03, 0.3 μmol, within 30 minutes after injection
Description: Micro-injection in NTS. Rats were anesthetized and placed in a David-Kopf stereotaxic instrument. The cerebellum was exposed after removing the skin and occipital bone. […] At the end of experiments, the animals were sacrificed. The brain was removed and sectioned for histological confirmation of the drug application site.

TNF-α = assay: Plasma cytokine immunoreactivity after LPS: TNF-α; assay type: in vivo, Wistar rats
Protocol: (§3) Plasma cytokine immunoreactivity and blood glucose. Blood was collected from venous cannula, injected into ice-cold heparinized Eppendorf tubes and centrifuged at 1500 rpm for 10 min at 4° C. Plasma supernatant was stored at −70° C. until analyzed. Solid phase enzyme immunoassay that specifically detects murine IL-1β, IL-6, IFN-γ and TNF-α was used with a detection limit of >10 pg/ml (Endogen, U.S.A). Pretreatment with eugenosedin-A and other agents was performed 15 minutes before intravenous injection of LPS. Blood was collected from venous cannula. Blood glucose was measured with a glucose test strip (Glucotide, Bayer, U.S.A) at 1, 3 and 5 hours.

LPS-induced hypotension = assay type: in vivo, Wistar rats; details: LPS 10 mg kg^−1 i.v.; for LPS-induced hypotension: 15 mg kg^−1 i.v.; for development of hypotension after LPS injection and normalization of BP: i.v. pretreatment; for second prolonged hypotensive phase after LPS: pretreatment 0.5 and 1 mg kg^−1 i.v.
Protocol: Intravenous injection. The experiments were carried out as previously described (Wu B N. et al., Biochem. Pharmacol., 48:101–109, 1994). In brief, Wistar rats weighing 250–300 grams were anesthetized with pentobarbital sodium (50 mg kg^−1, i.p.). Following tracheal cannulation, systemic arterial BP and HR were recorded from the femoral artery by a pressure transducer (model P10EZ; Spectramed, Oxnard, Calif., U.S.A.) connected to a recorder (GOULD, Valley View, Ohio, Model P50). Body temperature was maintained at 37° C. by an electric heating pad. A femoral vein was cannulated for intravenous injection of drugs and LPS (10 mg kg^−1).

Blood glucose after LPS = assay type: in vivo, Wistar rats; details: for initial hyperglycemic response to LPS: blood glucose at 1 and 3 hours after LPS; for hypoglycemic response to LPS: blood glucose at 5 hours after LPS
Protocol: as §3

IL-1β = assay: Plasma cytokine immunoreactivity after LPS: IL-1β; assay type: in vivo, Wistar rats; details: 3 hours after LPS 10 mg kg^−1 i.v.; pretreatment (eugenosedin-A 1 mg kg^−1 i.v.)
Protocol: as §3

IFN-γ = assay: Plasma cytokine immunoreactivity after LPS: IFN-γ; assay type: in vivo, Wistar rats; details: 1 hour after LPS administration
Protocol: as §3

[2] = Intra-cisternal injections: mean arterial BP and HR; assay type: in vivo, rats; details: for effect on mean arterial BP and HR: eugenosedin-A and trazodone 0.3, 0.03 μmol, yohimbine 0.03 μmol
Protocol: (§4) Intra-cisternal injections. […] Briefly, rats weighing 250–300 g were anaesthetized with pentobarbital sodium (50 mg kg^−1, i.p.) and mounted in a David-Kopf stereotaxic instrument (Yeh J L. et al., Brain. Res. Bull., 30:641–648, 1993). The calvarium was exposed and a 1 mm diameter trephine hole was drilled 1.8 mm lateral to the coronary and 1.5 mm posterior to the sagittal sutures. A cannula (0.7 mm O.D.) connected to a Hamilton syringe (RN-705, 5051) by PE-50 was advanced 4.7 mm into the brain using the electrode carrier.

α2-adrenoceptor = assay: Intra-cisternal antagonism of clonidine-induced hypotension and bradycardia; assay type: in vivo, rats; details: for hypotensive effect of clonidine: given 15 min before clonidine injection
Protocol: as §4

[3] = Peroxyl radical scavenging, B-phycoerythrin/AAPH; assay type: biochemical
Protocol: The stoichiometric factors of the test compounds with hydrophilic peroxyl radicals were calculated by the equation as mentioned Ascorbic acid was used as a positive control.

[4] = 3 hours after LPS 10 mg kg^−1 i.v., pretreatment (eugenosedin-A 1 mg kg^−1 i.v.)
[5] = 5 hours after LPS 10 mg kg^−1 i.v., pretreatment

Chain of 5-HT2A receptor (P14842 whole entry): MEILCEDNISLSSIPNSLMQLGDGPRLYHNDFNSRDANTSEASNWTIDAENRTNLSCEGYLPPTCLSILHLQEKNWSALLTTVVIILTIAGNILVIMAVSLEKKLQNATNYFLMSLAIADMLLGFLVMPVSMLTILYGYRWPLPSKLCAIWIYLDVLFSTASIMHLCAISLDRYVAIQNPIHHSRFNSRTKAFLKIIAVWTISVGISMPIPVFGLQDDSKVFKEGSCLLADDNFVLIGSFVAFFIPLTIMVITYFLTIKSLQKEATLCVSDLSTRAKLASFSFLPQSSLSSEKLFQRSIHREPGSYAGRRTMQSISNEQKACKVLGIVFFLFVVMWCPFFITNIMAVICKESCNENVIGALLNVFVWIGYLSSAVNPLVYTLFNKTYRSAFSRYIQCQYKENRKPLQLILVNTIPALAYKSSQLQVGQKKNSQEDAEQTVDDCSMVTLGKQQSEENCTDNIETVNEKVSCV

NCCc1c[nH]c2ccc(O)cc12 [Compound 5-HT, serotonin]
order of potency on 5-HT2A receptors (5-HT2A receptor): ketanserin >methylsergide >eugenosedin-A >5-HT >propranolol >prazosin
binding affinity for α1 receptors (α1 receptors): lower binding affinities for α1 receptors
order of α1 receptor binding potency (α1 receptors): prazosin >ketanserin >eugenosedin-A >methylsergide, propranolol and 5-HT
order of α2 receptor binding potency (α2 receptors): prazosin >eugenosedin-A >ketanserin >methylsergide >propranolol and 5-HT

CC[C@@H](CO)NC(=O)[C@@H]1C=C2c3cccc4c3c(cn4C)C[C@H]2N(C)C1 [methysergide]
binding affinity for α1 receptors (α1 receptors): lower binding affinities for α1 receptors
order of α1 receptor binding potency (α1 receptors): prazosin >ketanserin >eugenosedin-A >methylsergide, propranolol and 5-HT
binding affinity for α2-adrenoceptors (α2 receptors): had binding affinities for α2-adrenoceptors
order of α2 receptor binding potency (α2 receptors): prazosin >eugenosedin-A >ketanserin >methylsergide >propranolol and 5-HT

CNCCC(Oc1ccc(C(F)(F)F)cc1)c1ccccc1 (stereo not shown) [fluoxetine]
pressor response and HR [1]: mild, but significant, pressor responses and increased the HR

O=C1O[C@H]([C@@H](O)CO)C(O)=C1O [ascorbic acid]
LPS-induced increase in TNF-α (TNF-α; [4]): significantly inhibited
LPS-induced hypotension (LPS-induced hypotension): inhibited LPS-induced hypotension
initial hyperglycemic response to LPS (Blood glucose after LPS): inhibited the initial hyperglycemic response to LPS
hypoglycemic response to LPS (Blood glucose after LPS): did not reverse the hypoglycemic response
LPS-induced increase in IL-1β (IL-1β): significantly inhibited
LPS-induced production of IFN-γ (IFN-γ): insignificantly enhanced

Cl.N=C(N)NN [aminoguanidine, aminoguanidine HCl]
LPS-induced increase in TNF-α (TNF-α; [4]): significantly inhibited
LPS-induced hypotension (LPS-induced hypotension): inhibited LPS-induced hypotension
initial hyperglycemic response to LPS (Blood glucose after LPS): inhibited the initial hyperglycemic response to LPS
hypoglycemic response to LPS (Blood glucose after LPS): did not reverse the hypoglycemic response
LPS-induced increase in IL-1β (IL-1β): significantly inhibited

O=c1n(CCCN2CCN(c3cccc(Cl)c3)CC2)nc2ccccn12 [trazodone]
pressor response and HR [1]: mild, but significant, pressor responses and increased the HR
effect on mean arterial BP and HR [2]: increased mean arterial BP and HR
LPS-induced increase in TNF-α (TNF-α; [4]): significantly inhibited
LPS-induced increase in TNF-α (TNF-α; [5]): significantly reduced
development of hypotension after LPS injection and normalization of BP (LPS-induced hypotension): normalized BP within 5 hours
first immediate hypotensive phase after LPS (LPS-induced hypotension; pretreatment 0.5 mg kg^−1 i.v.): not affected
first immediate hypotensive phase after LPS (LPS-induced hypotension; pretreatment 1 mg kg^−1 i.v.): attenuated it
second prolonged hypotensive phase after LPS (LPS-induced hypotension): significantly reduced
LPS-induced increase in IL-1β (IL-1β): significantly inhibited
hypotensive effect of clonidine (α2-adrenoceptor): antagonized the hypotensive effect of clonidine
scavenging of AAPH-derived peroxyl radicals (B-phycoerythrin fluorescence, lag time) [3]: did not scavenge peroxyl radicals

O=C(c1ccc(F)cc1)C1CCN(CCn2c(=O)[nH]c3ccccc3c2=O)CC1 [ketanserin]
order of potency on 5-HT2A receptors (5-HT2A receptor): ketanserin >methylsergide >eugenosedin-A >5-HT >propranolol >prazosin
order of α1 receptor binding potency (α1 receptors): prazosin >ketanserin >eugenosedin-A >methylsergide, propranolol and 5-HT
binding affinity for α2-adrenoceptors (α2 receptors): had binding affinities for α2-adrenoceptors
order of α2 receptor binding potency (α2 receptors): prazosin >eugenosedin-A >ketanserin >methylsergide >propranolol and 5-HT

COC(=O)[C@@H]1[C@H]2C[C@H]3c4[nH]c5ccccc5c4CCN3C[C@@H]2CC[C@@H]1O [yohimbine]
HR increase ([1]; NTS micro-injection, 0.03 μmol): up to 78 bpm
pressor response ([1]; NTS micro-injection, 0.03 μmol): up to 13 mmHg
increase of HR ([2]; 0.03 μmol): up to 78 bpm
pressor response ([2]; 0.03 μmol): up to 13 mmHg
effect on mean arterial BP and HR [2]: increased mean arterial BP and HR
LPS-induced increase in TNF-α (TNF-α; [4]): significantly inhibited
LPS-induced increase in TNF-α (TNF-α; [5]): significantly reduced
development of hypotension after LPS injection and normalization of BP (LPS-induced hypotension): normalized BP within 5 hours
first immediate hypotensive phase after LPS (LPS-induced hypotension; pretreatment 0.5 mg kg^−1 i.v.): not affected
first immediate hypotensive phase after LPS (LPS-induced hypotension; pretreatment 1 mg kg^−1 i.v.): attenuated it
second prolonged hypotensive phase after LPS (LPS-induced hypotension): significantly reduced
LPS-induced increase in IL-1β (IL-1β): significantly inhibited
LPS-induced production of IFN-γ (IFN-γ): insignificantly enhanced
hypotensive effect of clonidine (α2-adrenoceptor): antagonized the hypotensive effect of clonidine
clonidine-induced bradycardia (α2-adrenoceptor; low dose, 0.03 μmol): did not inhibit clonidine-induced bradycardia

CC(C)NCC(O)COc1cccc2ccccc12 (stereo not shown) [propranolol]
order of α1 receptor binding potency (α1 receptors): prazosin >ketanserin >eugenosedin-A >methylsergide, propranolol and 5-HT
order of α2 receptor binding potency (α2 receptors): prazosin >eugenosedin-A >ketanserin >methylsergide >propranolol and 5-HT
